# pKd: −log10 of the molar value. The source made the active and inactive calls. The rule behind the calls is not given here.
# Tests used:
# [1] = molecular target: T1, Beta-ketoacyl-[acyl-carrier-protein] synthase III (Escherichia coli K-12, UniProt P0A6R0); assay: Binding affinity to Escherichia coli K12 KAS 3 expressed in Escherichia coli BL21 by fluorescence quenching analysis
# T1 sequence (P0A6R0 whole entry): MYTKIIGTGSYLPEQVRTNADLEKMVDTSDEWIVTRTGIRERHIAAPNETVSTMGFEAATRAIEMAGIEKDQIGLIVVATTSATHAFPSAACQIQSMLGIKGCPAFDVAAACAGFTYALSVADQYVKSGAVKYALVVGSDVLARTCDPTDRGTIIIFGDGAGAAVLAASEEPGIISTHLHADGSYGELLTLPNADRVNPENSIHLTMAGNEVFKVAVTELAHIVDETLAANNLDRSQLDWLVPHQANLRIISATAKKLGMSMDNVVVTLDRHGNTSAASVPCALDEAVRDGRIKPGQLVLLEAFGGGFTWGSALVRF
# Escherichia coli K-12 = assay: Binding affinity to Escherichia coli K12 KAS 3 expressed in Escherichia coli BL21 by STD-NMR spectroscopy
# Staphylococcus aureus [2] = assay: Antimicrobial activity against methicillin-resistant Staphylococcus aureus CCARM 3114 after 20 hrs by twofold serial broth dilution method; assay type: functional; conditions: CCARM 3114, 20 h
# Enterococcus faecalis = assay: Antimicrobial activity against Enterococcus faecalis KCTC 2011 after 20 hrs by twofold serial broth dilution method; assay type: functional; conditions: KCTC 2011, 20 h
# Escherichia coli = assay: Antimicrobial activity against Escherichia coli KCTC 1682 after 20 hrs by twofold serial broth dilution method; assay type: functional; conditions: KCTC 1682, 20 h
# Klebsiella pneumoniae = assay: Antimicrobial activity against Klebsiella pneumoniae KCTC 2242 after 20 hrs by twofold serial broth dilution method; assay type: functional; conditions: KCTC 2242, 20 h
# Staphylococcus aureus [3] = assay: Antimicrobial activity against Staphylococcus aureus KCTC 1621 after 20 hrs by twofold serial broth dilution method; assay type: functional; conditions: KCTC 1621, 20 h
Activity (Escherichia coli K-12),Structure (SMILES),pKd [1],MIC (Staphylococcus aureus [2]) [µg/mL],MIC (Enterococcus faecalis) [µg/mL],MIC (Escherichia coli) [µg/mL],MIC (Klebsiella pneumoniae) [µg/mL],MIC (Staphylococcus aureus [3]) [µg/mL]
Active,CC1CN(c2ccc(O)c(C(=O)O)c2)C(=S)NC1=O (stereo unspecified),< 3.00,–,–,–,–,–
inactive,Cc1c(C(=O)O)cc(C(C)(C)C)n1CCSCc1c(F)cccc1Cl,–,–,–,–,–,–
Active,CC(C)(CC(=O)O)CC(=O)NCCN1CCNC1=O,< 3.00,–,–,–,–,–
inactive,NS(=O)(=O)c1cccc(NC(=O)Nc2cccc(S(N)(=O)=O)c2)c1,–,–,–,–,–,–
inactive,COc1ccc2c(c1)CCC/C2=N/Nc1nc(C(=O)NN)cs1,–,–,–,–,–,–
inactive,COc1ccc(NC(=O)CC(CC(=O)O)c2ccccc2)cc1 (stereo unspecified),–,–,–,–,–,–
Active,O=C(O)c1cc(NC(=O)c2ccccc2[N+](=O)[O-])ccc1O,< 3.00,–,–,–,–,–
Active,C=CCSC1Nn2c(nnc(C)c2=O)S1 (stereo unspecified),< 3.00,–,–,–,–,–
inactive,CC1(O)N(CCC(N)=O)C(=O)OC12CCCCC2 (stereo unspecified),–,–,–,–,–,–
inactive,CCCc1cc(=O)oc2cc(OC(=O)c3ccccc3Cl)ccc12,–,–,–,–,–,–
inactive,C=CCn1c(SCC(=O)Nc2ccc(S(N)(=O)=O)cc2)nnc1-c1ccc(Cl)cc1,–,–,–,–,–,–
inactive,Cc1cc(C)nc(NS(=O)(=O)c2ccc(NC(=O)c3sc4ccccc4c3Cl)cc2)n1,–,–,–,–,–,–

Structure (SMILES),Activity (Escherichia coli K-12),pKd [1],MIC (Staphylococcus aureus [2]) [µg/mL],MIC (Enterococcus faecalis) [µg/mL],MIC (Escherichia coli) [µg/mL],MIC (Klebsiella pneumoniae) [µg/mL],MIC (Staphylococcus aureus [3]) [µg/mL]
C=C/C(C)=C/[C@@]1(C)SC(=O)C(C)=C1O [THIOLACTOMYCIN],Active,3.92,128,256,128,256,256
Oc1ccc(/C=N/C2CCCCC2)c(O)c1,Active,7.70,128,256,128,256,256
C/C(=N\Nc1nc(C)cs1)c1cccc(O)c1,Active,< 3.00,256,256,> 1020,> 1020,256
COc1ccc2c(c1OC)C(=O)OC2C(C)C(=O)c1ccc(O)c(O)c1 (stereo unspecified),Active,5.91,> 1020,> 1020,> 1020,> 1020,> 1020
Cn1ncc2c(Nc3ccccc3)nc(NCCCO)nc21,Active,3.85,–,–,–,–,–

# From ChEMBL document CHEMBL1152734, “Novel E. coli beta-ketoacyl-acyl carrier protein synthase III inhibitors as targeted antibiotics” (Bioorg Med Chem, 2009)
